The values below come from patent US10774092B2 (SALK INSTITUTE FOR BIOLOGICAL STUDIES, priority 2014, dated 2020).

By IC50 is commonly meant the midpoint of a concentration-inhibition curve.

The structures appear in SMILES notation. Where a name gives a salt, the structure may show the parent alone.

The target of one test is ULK1 (Homo sapiens, UniProt O75385). The experiment in a line: ULK1 inhibition assay (Table 1). It is filed as biochemical. Particulars: * = tested as a mixture of regioisomers.
ULK1 (Homo sapiens, UniProt O75385), sequence (O75385 whole entry, looked up): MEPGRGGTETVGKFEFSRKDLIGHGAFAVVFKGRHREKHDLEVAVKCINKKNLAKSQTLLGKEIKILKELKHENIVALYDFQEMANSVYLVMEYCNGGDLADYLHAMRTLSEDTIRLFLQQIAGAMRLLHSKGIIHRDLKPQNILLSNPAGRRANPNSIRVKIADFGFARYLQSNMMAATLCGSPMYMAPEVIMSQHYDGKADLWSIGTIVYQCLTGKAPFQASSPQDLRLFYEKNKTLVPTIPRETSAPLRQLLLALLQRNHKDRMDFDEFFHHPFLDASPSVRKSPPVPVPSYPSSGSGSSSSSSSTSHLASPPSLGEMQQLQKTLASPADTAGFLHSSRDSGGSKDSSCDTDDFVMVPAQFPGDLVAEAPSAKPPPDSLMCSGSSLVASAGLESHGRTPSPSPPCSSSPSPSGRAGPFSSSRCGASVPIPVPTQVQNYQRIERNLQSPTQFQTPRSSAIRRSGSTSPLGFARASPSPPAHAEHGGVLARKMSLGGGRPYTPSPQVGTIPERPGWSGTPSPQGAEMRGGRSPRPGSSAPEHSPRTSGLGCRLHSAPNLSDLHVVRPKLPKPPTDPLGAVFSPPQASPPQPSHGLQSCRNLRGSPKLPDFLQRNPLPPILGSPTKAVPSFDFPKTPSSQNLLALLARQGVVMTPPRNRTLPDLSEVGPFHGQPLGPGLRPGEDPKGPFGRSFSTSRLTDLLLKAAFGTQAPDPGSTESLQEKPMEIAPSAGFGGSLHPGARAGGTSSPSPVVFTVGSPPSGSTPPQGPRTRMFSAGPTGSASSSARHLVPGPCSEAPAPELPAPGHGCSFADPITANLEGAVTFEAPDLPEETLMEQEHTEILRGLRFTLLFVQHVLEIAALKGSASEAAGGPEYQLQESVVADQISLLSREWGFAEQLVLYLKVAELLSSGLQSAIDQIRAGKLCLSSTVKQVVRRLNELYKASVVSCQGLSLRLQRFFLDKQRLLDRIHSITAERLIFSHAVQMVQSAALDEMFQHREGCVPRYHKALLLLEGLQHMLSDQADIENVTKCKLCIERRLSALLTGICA
As for `CC1CN1c1nc(Nc2ccc3c(c2)CCC(=O)N3)ncc1C(F)(F)F` (centres unmarked) [Example 183a, 6-((4-(2-methylaziridin-1-yl)-5-(trifluoromethyl)pyrimidin-2-yl)amino)-3,4-dihydroquinolin-2(1H)-one], the IC50 is over 2000 nM.
Take `O=C1CCc2cc(Nc3ncc(C(F)(F)F)c(Nc4ccc5[nH]ncc5c4)n3)ccc2N1` [Example 185, 6-((4-((1H-indazol-5-yl)amino)-5-(trifluoromethyl)pyrimidin-2-yl)amino)-3,4-dihydroquinolin-2(1H)-one]: the IC50 was under 200 nM.
Consider `COc1cc(Nc2ncc(Br)c(NC3CC3)n2)cc(OC)c1OC` [Example 186, 5-bromo-N4-cyclopropyl-N2-(3,4,5-trimethoxyphenyl)pyrimidine-2,4-diamine], for which the 50% inhibitory concentration (IC50) is under 200 nM.
On to `FC(F)(F)c1cnc(Nc2ccc3nn[nH]c3c2)nc1NC1CC1` [Example 188, N2-(1H-benzo[d][1,2,3]triazol-6-yl)-N4-cyclopropyl-5-(trifluoromethyl)pyrimidine-2,4-diamine], for which the IC50 is under 200 nM.
`FC(F)(F)c1cnc(Nc2ccc3c(c2)OCCCO3)nc1NC1CC1` [Example 190, N4-cyclopropyl-N2-(3,4-dihydro-2H-benzo[b][1,4]dioxepin-7-yl)-5-(trifluoromethyl)pyrimidine-2,4-diamine]: the concentration for half-maximal inhibition (IC50) is under 200 nM.
Consider `O=c1[nH]c2ncc(Nc3nc(Nc4ccc5c(c4)OCCO5)ncc3Br)cc2o1` [Example 192, 6-((5-bromo-2-((2,3-dihydrobenzo[b][1,4]dioxin-6-yl)amino)pyrimidin-4-yl)amino)oxazolo[4,5-b]pyridin-2(3H)-one], for which the IC50 is under 200 nM.
As to `O=C1CCc2cc(Nc3ncc(C(F)(F)F)c(NC4COC4)n3)ccc2N1` [Example 193, 6-((4-(oxetan-3-ylamino)-5-(trifluoromethyl)pyrimidin-2-yl)amino)-3,4-dihydroquinolin-2(1H)-one], the IC50 is over 2000 nM.
As to `FC(F)(F)c1cnc(Nc2cnc3[nH]ccc3c2)nc1NC1COC1` [Example 194, N4-(oxetan-3-yl)-N2-(1H-pyrrolo[2,3-b]pyridin-5-yl)-5-(trifluoromethyl)pyrimidine-2,4-diamine], the concentration for half-maximal inhibition (IC50) was under 200 nM.
Take `O=C1CCc2cc(Nc3ncc(C(F)(F)F)c(NCCO)n3)ccc2N1` [Example 197, 6-((4-((2-hydroxyethyl)amino)-5-(trifluoromethyl)pyrimidin-2-yl)amino)-3,4-dihydroquinolin-2(1H)-one]: the IC50 is under 200 nM.
Regarding `CNC(=O)c1ccccc1Nc1nc(Nc2cnc3[nH]ccc3c2)ncc1C(F)(F)F` [Example 201, 2-((2-((1H-pyrrolo[2,3-b]pyridin-5-yl)amino)-5-(trifluoromethyl)pyrimidin-4-yl)amino)-N-methylbenzamide], the half-inhibitory concentration (IC50) is under 200 nM.
As for `CN(c1nc(Nc2ccc3c(c2)CCC(=O)N3)ncc1C(F)(F)F)C1CC1` [Example 202, 6-((4-(cyclopropyl(methyl)amino)-5-(trifluoromethyl)pyrimidin-2-yl)amino)-3,4-dihydroquinolin-2(1H)-one], the IC50 was under 200 nM.
For `FC(F)(F)c1cnc(Nc2ccc3[nH]ccc3c2)nc1NC1CC1` [Example 206, N4-cyclopropyl-N2-(1H-indol-5-yl)-5-(trifluoromethyl) pyrimidine-2,4-diamine], the IC50 is under 200 nM.
Still for that read-out and setting: the result for `FC(F)(F)c1cnc(Nc2ccc3ncoc3c2)nc1NC1CC1` [Example 208a, N2-(benzo[d]oxazol-6-yl)-N4-cyclopropyl-5-(trifluoromethyl)pyrimidine-2,4-diamine] reads under 200 nM.
Regarding `Nc1nc(Nc2ccc3c(c2)CCC(=O)N3)ncc1C(F)(F)F` [Example 209, 6-((4-amino-5-(trifluoromethyl)pyrimidin-2-yl)amino)-3,4-dihydroquinolin-2(1H)-one], the concentration for half-maximal inhibition (IC50) is 200 to 2000 nM.
Still for that read-out and setting: the result for `O=C1CCc2cc(Nc3ncc(C(F)(F)F)c(N(CCO)CCO)n3)ccc2N1` [Example 212a, 6-((4-(bis(2-hydroxyethyl)amino)-5-(trifluoromethyl)pyrimidin-2-yl)amino)-3,4-dihydroquinolin-2(1H)-one] reads over 2000 nM.
Take `FC(F)(F)c1cnc(Nc2ccc3c(c2)OCO3)nc1NC1CC1` [Example 213, N2-(benzo[d][1,3]dioxol-5-yl)-N4-cyclopropyl-5-(trifluoromethyl)pyrimidine-2,4-diamine]: the IC50 is under 200 nM.
On to `O=C1CCc2cc(Nc3ncc(C(F)(F)F)c(N4CC(F)(F)C4)n3)ccc2N1` [Example 215, 6-((4-(3,3-difluoroazetidin-1-yl)-5-(trifluoromethyl)pyrimidin-2-yl)amino)-3,4-dihydroquinolin-2(1H)-one], for which the IC50 was under 200 nM.
With `O=C1CCc2cc(Nc3ncc(C(F)(F)F)c(NCC4CC4)n3)ccc2N1` [Example 216, 6-((4-((cyclopropylmethyl)amino)-5-(trifluoromethyl)pyrimidin-2-yl)amino)-3,4-dihydroquinolin-2(1H)-one], the IC50 was under 200 nM.
Still for that read-out and setting: the result for `Nc1nc(Nc2cnc3[nH]ccc3c2)ncc1C(F)(F)F` [Example 217, N2-(1H-pyrrolo[2,3-b]pyridin-5-yl)-5-(trifluoromethyl) pyrimidine-2,4-diamine] reads over 2000 nM.
For `COC(=O)CNc1nc(Nc2ccc3c(c2)CCC(=O)N3)ncc1C(F)(F)F` [Example 218, Methyl (2-((2-oxo-1,2,3,4-tetrahydroquinolin-6-yl)amino)-5-(trifluoromethyl)pyrimidin-4-yl)glycinate], the half-maximal inhibitory concentration (IC50) was over 2000 nM.
As to `CCONc1nc(Nc2ccc3c(c2)CCC(=O)N3)ncc1C(F)(F)F` [Example 219, 6-((4-(ethoxyamino)-5-(trifluoromethyl)pyrimidin-2-yl)amino)-3,4-dihydroquinolin-2(1H)-one], the half-inhibitory concentration (IC50) is over 2000 nM.
Consider `CC1(Nc2nc(Nc3ccc4c(c3)CCC(=O)N4)ncc2C(F)(F)F)COC1` [Example 220a, 6-((4-((3-methyloxetan-3-yl)amino)-5-(trifluoromethyl)pyrimidin-2-yl)amino)-3,4-dihydroquinolin-2(1H)-one], for which the IC50 is over 2000 nM.
The same measure, in the same setting: the result for `FC(F)(F)c1cnc(Nc2ccnnc2)nc1NC1CC1` [Example 221a, N4-cyclopropyl-N2-(pyridazin-4-yl)-5-(trifluoromethyl)pyrimidine-2,4-diamine] reads under 200 nM.
On to `O=C1CCc2cc(Nc3ncnc(NC4CC4)n3)ccc2N1` [Example 225, 6-((4-(cyclopropylamino)-1,3,5-triazin-2-yl)amino)-3,4-dihydroquinolin-2(1H)-one], for which the IC50 was over 2000 nM.
Same read-out and setting: the result for `COC(=O)[C@@H]1CCCN1c1nc(Nc2ccc3c(c2)CCC(=O)N3)ncc1C(F)(F)F` [Example 227, Methyl (2-((2-oxo-1,2,3,4-tetrahydroquinolin-6-yl)amino)-5-(trifluoromethyl)pyrimidin-4-yl)-L-prolinate] reads 200 to 2000 nM.
`FC(F)(F)c1cnc(N2CCCC2c2cccnc2)nc1NC1CC1` (centres unmarked) [Example 228, N-cyclopropyl-2-(2-(pyridin-3-yl)pyrrolidin-1-yl)-5-(trifluoromethyl)pyrimidin-4-amine]: the IC50 was over 2000 nM.
For the compound `CNC(=O)c1ccccc1Oc1nc(Nc2cc(OC)c(OC)c(OC)c2)ncc1Cl` [Example 234a, 2-((5-chloro-2-((3,4,5-trimethoxyphenyl)amino)pyrimidin-4-yl)oxy)-N-methylbenzamide], the half-maximal inhibitory concentration (IC50) was over 2000 nM.

A further test deals with ULK1. Put plainly: ULK1 inhibition assay (Table 1). It is filed as biochemical. Particulars: * = tested as a mixture of regioisomers.
Consider `COc1cc(Nc2ncc(Br)c(Oc3ccccc3-c3nc(C)co3)n2)cc(OC)c1OC` [Example 290, 5-bromo-4-(2-(4-methyloxazol-2-yl)phenoxy)-N-(3,4,5-trimethoxyphenyl)pyrimidin-2-amine], for which the concentration for half-maximal inhibition (IC50) is over 2000 nM.
The same measure, in the same setting: the result for `O=[N+]([O-])c1cnc(NC2CC2)nc1NC1CC1` [Example 291b, N2,N4-dicyclopropyl-5-nitropyrimidine-2,4-diamine] reads over 2000 nM; that for `COc1cc(Nc2ncc(Br)c(Nc3ccccc3)n2)cc(OC)c1OC` [Example 293, 5-bromo-N4-phenyl-N2-(3,4,5-trimethoxyphenyl)pyrimidine-2,4-diamine], under 200 nM.
Consider `O=C1CCc2cc(Nc3ncc(C(F)(F)F)c(Oc4ccccc4)n3)ccc2N1` [Example 300a, 6-((4-phenoxy-5-(trifluoromethyl)pyrimidin-2-yl)amino)-3,4-dihydroquinolin-2(1H)-one], for which the IC50 was over 2000 nM.
For the compound `O=C1CCc2cc(Nc3nc(Oc4ccccc4)ncc3C(F)(F)F)ccc2N1` [Example 300b, 6-((2-phenoxy-5-(trifluoromethyl)pyrimidin-4-yl)amino)-3,4-dihydroquinolin-2(1H)-one], the IC50 was over 2000 nM.
As to `FC(F)(F)c1cnc(Nc2ccc(Nc3ncc(C(F)(F)F)c(NC4CC4)n3)cc2)nc1NC1CC1` [Example 304b, N2,N2′-(1,4-phenylene)bis(N4-cyclopropyl-5-(trifluoromethyl)pyrimidine-2,4-diamine)], the IC50 was over 2000 nM.
For `FC(F)(F)c1cnc(Nc2ccc3c(c2)CCNC3)nc1NC1CC1` [Example 309, N4-cyclopropyl-N2-(1,2,3,4-tetrahydroisoquinolin-6-yl)-5-(trifluoromethyl)pyrimidine-2,4-diamine.HCl], the half-inhibitory concentration (IC50) is under 200 nM.
In the case of `NCCCNc1nc(Nc2ccc3c(c2)CCC(=O)N3)ncc1C(F)(F)F` [Example 313, 6-((4-((3-aminopropyl)amino)-5-(trifluoromethyl)pyrimidin-2-yl)amino)-3,4-dihydroquinolin-2(1H)-one.HCl], the 50% inhibitory concentration (IC50) is under 200 nM.
With `O=C1NC(=O)c2cc(Nc3ncc(C(F)(F)F)c(NC4CC4)n3)ccc21` [Example 314, 5-((4-(cyclopropylamino)-5-(trifluoromethyl)pyrimidin-2-yl)amino)isoindoline-1,3-dione], the half-inhibitory concentration (IC50) is under 200 nM.
Turning to `CNC(=O)CCOc1nc(Nc2cc(OC)c(OC)c(OC)c2)ncc1Br` [Example 316, 3-((5-bromo-2-((3,4,5-trimethoxyphenyl)amino)pyrimidin-4-yl)oxy)-N-methylpropanamide], the IC50 is under 200 nM.
On to `COc1cc(Nc2ncc(Br)c(Nc3ccccc3O)n2)cc(OC)c1OC` [Example 317, 2-((5-bromo-2-((3,4,5-trimethoxyphenyl)amino)pyrimidin-4-yl)amino)phenol], for which the IC50 was under 200 nM.
